Source: PubChem BioAssay AID248 (DTP/NCI, 2004)
Values joined by “and” are separate entries in the source; they are usually repeats but may differ in a detail not shown here. Identical values can stand only once. Inconclusive results and toxic doses are left out. Rule as the data show it: active = T/C of 150% or more; inactive = T/C below 125%.

System: L1210 leukemia ip in BDF1 mice, survival T/C
Assay: NCI In Vivo Anticancer Drug Screen. Data for tumor model L1210 Leukemia (intraperitoneal) in B6D2F1 (BDF1) mice
Conditions: endpoint: mean survival time, higher = longer survival
Method in brief: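 Read-out is survival time, reported as the treated-group measurement over the vehicle-control measurement.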

[1] = dose: 100.0 mg/kg/injection, schedule: Q01DX001 (ip), vehicle: saline
[2] = dose: 200.0 mg/kg/injection, schedule: Q01DX001 (ip), vehicle: saline
[3] = dose: 400.0 mg/kg/injection, schedule: Q01DX001 (ip), vehicle: saline
[4] = dose: 100.0 mg/kg/injection, schedule: Q01DX009 (ip), vehicle: Klucel (hydroxypropylcellulose) (HPC)
[5] = dose: 100.0 mg/kg/injection, schedule: Q04DX003 (ip), vehicle: Klucel (hydroxypropylcellulose) (HPC)
[6] = dose: 200.0 mg/kg/injection, schedule: Q01DX009 (ip), vehicle: Klucel (hydroxypropylcellulose) (HPC)
[7] = dose: 200.0 mg/kg/injection, schedule: Q04DX003 (ip), vehicle: Klucel (hydroxypropylcellulose) (HPC)
[8] = dose: 400.0 mg/kg/injection, schedule: Q01DX009 (ip), vehicle: Klucel (hydroxypropylcellulose) (HPC)
[9] = dose: 400.0 mg/kg/injection, schedule: Q04DX003 (ip), vehicle: Klucel (hydroxypropylcellulose) (HPC)
[10] = dose: 50.0 mg/kg/injection, schedule: Q01DX001 (ip), vehicle: saline
[11] = dose: 50.0 mg/kg/injection, schedule: Q04DX003 (ip), vehicle: water
[12] = dose: 100.0 mg/kg/injection, schedule: Q04DX003 (ip), vehicle: water

Measured: T/C

O=S(=O)(O)CCc1ccccn1
inactive: dose: 50.0 mg/kg/injection, schedule: Q01DX009 (ip), vehicle: saline 106 % of control | dose: 100.0 mg/kg/injection, schedule: Q01DX009 (ip), vehicle: saline 109 % of control | dose: 200.0 mg/kg/injection, schedule: Q01DX009 (ip), vehicle: saline 92 % of control

CCCC(C)(CC)C(=O)O (stereo not drawn)
inactive: dose: 75.0 mg/kg/injection, schedule: Q01DX001 (ip), vehicle: acetone 108 % of control | dose: 150.0 mg/kg/injection, schedule: Q01DX001 (ip), vehicle: acetone 101 % of control | dose: 300.0 mg/kg/injection, schedule: Q01DX001 (ip), vehicle: acetone 98 % of control

CC(C)(C)CC(=O)CC(C)(C)C
inactive: [1] 98 % of control | [2] 87 % of control | [3] 98 % of control

O=C(CCc1ccccc1)NC1CCCCC1
inactive: dose: 12.5 mg/kg/injection, schedule: Q01DX001 (ip), vehicle: Klucel (hydroxypropylcellulose) (HPC) 104 % of control | dose: 12.5 mg/kg/injection, schedule: Q04DX003 (ip), vehicle: saline 88 % of control | dose: 25.0 mg/kg/injection, schedule: Q01DX001 (ip), vehicle: Klucel (hydroxypropylcellulose) (HPC) 104 % of control | dose: 25.0 mg/kg/injection, schedule: Q04DX003 (ip), vehicle: saline 88 % of control | dose: 50.0 mg/kg/injection, schedule: Q01DX001 (ip), vehicle: Klucel (hydroxypropylcellulose) (HPC) 98 % of control | dose: 50.0 mg/kg/injection, schedule: Q04DX003 (ip), vehicle: saline 93 % of control

O=C(Nc1ccc(F)cc1)OCCc1ccccn1
inactive: dose: 100.0 mg/kg/injection, schedule: Q01DX001 (ip), vehicle: Klucel (hydroxypropylcellulose) (HPC) 96 % of control | [4] 98 % of control and 101 % of control | dose: 100.0 mg/kg/injection, schedule: Q04DX002 (ip), vehicle: Klucel (hydroxypropylcellulose) (HPC) 94 % of control and 99 % of control | [5] 113 % of control | dose: 200.0 mg/kg/injection, schedule: Q01DX001 (ip), vehicle: Klucel (hydroxypropylcellulose) (HPC) 101 % of control | [6] 101 % of control and 106 % of control | dose: 200.0 mg/kg/injection, schedule: Q04DX002 (ip), vehicle: Klucel (hydroxypropylcellulose) (HPC) 94 % of control and 96 % of control | [7] 96 % of control | dose: 400.0 mg/kg/injection, schedule: Q01DX001 (ip), vehicle: Klucel (hydroxypropylcellulose) (HPC) 91 % of control | [8] 94 % of control and 91 % of control | dose: 400.0 mg/kg/injection, schedule: Q04DX002 (ip), vehicle: Klucel (hydroxypropylcellulose) (HPC) 97 % of control and 105 % of control | [9] 99 % of control

Cc1ccnc(NS(=O)(=O)c2ccc(N=[N+]=[N-])cc2)n1
inactive: dose: 100.0 mg/kg/injection, schedule: Q01DX009 (ip), vehicle: carboxymethylcellulose (CMC) 92 % of control and 91 % of control | dose: 100.0 mg/kg/injection, schedule: Q04DX002 (ip), vehicle: carboxymethylcellulose (CMC) 98 % of control | dose: 200.0 mg/kg/injection, schedule: Q01DX009 (ip), vehicle: carboxymethylcellulose (CMC) 95 % of control | dose: 200.0 mg/kg/injection, schedule: Q04DX002 (ip), vehicle: carboxymethylcellulose (CMC) 93 % of control and 98 % of control | dose: 400.0 mg/kg/injection, schedule: Q01DX009 (ip), vehicle: carboxymethylcellulose (CMC) 97 % of control and 102 % of control | dose: 400.0 mg/kg/injection, schedule: Q04DX002 (ip), vehicle: carboxymethylcellulose (CMC) 101 % of control and 105 % of control

CCCCSc1ncnc2c1ncn2C1CCCCO1 (stereo not drawn)
inactive: [10] 102 % of control | [1] 104 % of control | dose: 100.0 mg/kg/injection, schedule: Q01DX009 (ip), vehicle: saline sonified 94 % of control | [5] 103 % of control | [2] 102 % of control | dose: 200.0 mg/kg/injection, schedule: Q01DX009 (ip), vehicle: saline sonified 90 % of control | [7] 113 % of control | [3] 113 % of control | dose: 400.0 mg/kg/injection, schedule: Q01DX009 (ip), vehicle: saline sonified 113 % of control | [9] 124 % of control

O=N[O-].O=N[O-].[Co].[NH-]CC[N-]CCO.[NH-]CC[N-]CCO
inactive: dose: 25.0 mg/kg/injection, schedule: Q01DX009 (ip), vehicle: water 109 % of control and 122 % of control | dose: 25.0 mg/kg/injection, schedule: Q04DX003 (ip), vehicle: water 99 % of control | dose: 50.0 mg/kg/injection, schedule: Q01DX009 (ip), vehicle: water 103 % of control and 109 % of control | [11] 100 % of control | dose: 100.0 mg/kg/injection, schedule: Q01DX009 (ip), vehicle: water 120 % of control and 89 % of control | [12] 97 % of control and 100 % of control

Cc1ccc(S(=O)(=O)N2CN3CN(C2)CN(S(=O)(=O)c2ccc(C)cc2)C3)cc1
inactive: dose: 100.0 mg/kg/injection, schedule: Q04DX003 (ip), vehicle: saline 95 % of control | dose: 200.0 mg/kg/injection, schedule: Q04DX003 (ip), vehicle: saline 86 % of control | dose: 400.0 mg/kg/injection, schedule: Q04DX003 (ip), vehicle: saline 95 % of control

CCCC[P+](CCCC)(CCCC)CC(=O)OCC
inactive: dose: 15.0 mg/kg/injection, schedule: Q01DX001 (ip), vehicle: carboxymethylcellulose (CMC) 86 % of control | dose: 60.0 mg/kg/injection, schedule: Q01DX001 (ip), vehicle: carboxymethylcellulose (CMC) 87 % of control

COc1cccc(CC(=O)c2c[nH]c3ccccc23)c1
inactive: [10] 104 % of control | [1] 101 % of control | [2] 98 % of control | [3] 101 % of control

NC(N)=N/N=C(\c1ccc(Br)cc1)C1CC1
inactive: dose: 15.0 mg/kg/injection, schedule: Q01DX Z (ip), vehicle: carboxymethylcellulose (CMC) 96 % of control | dose: 30.0 mg/kg/injection, schedule: Q01DX Z (ip), vehicle: carboxymethylcellulose (CMC) 95 % of control | dose: 30.0 mg/kg/injection, schedule: Q01DX Z (oral), vehicle: carboxymethylcellulose (CMC) 100 % of control | dose: 60.0 mg/kg/injection, schedule: Q01DX Z (ip), vehicle: carboxymethylcellulose (CMC) 96 % of control | dose: 60.0 mg/kg/injection, schedule: Q01DX Z (oral), vehicle: carboxymethylcellulose (CMC) 115 % of control | dose: 120.0 mg/kg/injection, schedule: Q01DX Z (oral), vehicle: carboxymethylcellulose (CMC) 107 % of control and 121 % of control | dose: 240.0 mg/kg/injection, schedule: Q01DX Z (oral), vehicle: carboxymethylcellulose (CMC) 102 % of control and 111 % of control

O=C(NO)c1ccc([N+](=O)[O-])cc1
inactive: [4] 92 % of control | dose: 180.0 mg/kg/injection, schedule: Q01DX015 (ip), vehicle: water 101 % of control | [6] 103 % of control | dose: 270.0 mg/kg/injection, schedule: Q01DX015 (ip), vehicle: water 107 % of control and 117 % of control and 119 % of control | dose: 400.0 mg/kg/injection, schedule: Q01DX001 (ip), vehicle: water 97 % of control | [8] 109 % of control | dose: 600.0 mg/kg/injection, schedule: Q01DX001 (ip), vehicle: water 97 % of control

O=C(Nc1cccc(Cl)c1)NS(=O)(=O)c1ccccc1
inactive: [4] 97 % of control | [6] 105 % of control | [8] 106 % of control

CCN(CC)CCCC(C)Nc1cc(N)nc2nc(-c3cc(OC)c(OC)c(OC)c3)cnc12 (stereo not drawn) (tested in a mixture with another compound)
inactive: dose: 75.0 mg/kg/injection, schedule: Q01DX001 (ip), vehicle: saline 87 % of control

CC(C)(C)C(/C=N/N=C(N)N)=N\N=C(N)N
inactive: dose: 15.0 mg/kg/injection, schedule: Q01DX Z (ip), vehicle: methylcellulose (MC) 105 % of control | dose: 30.0 mg/kg/injection, schedule: Q01DX Z (ip), vehicle: methylcellulose (MC) 91 % of control | dose: 60.0 mg/kg/injection, schedule: Q01DX Z (ip), vehicle: methylcellulose (MC) 94 % of control | dose: 120.0 mg/kg/injection, schedule: Q01DX Z (ip), vehicle: methylcellulose (MC) 91 % of control | dose: 600.0 mg/kg/injection, schedule: Q01DX Z (oral), vehicle: methylcellulose (MC) 110 % of control | dose: 720.0 mg/kg/injection, schedule: Q01DX Z (oral), vehicle: methylcellulose (MC) 98 % of control

CCC(=O)c1cc([N+](=O)[O-])ccc1N
inactive: dose: 50.0 mg/kg/injection, schedule: Q01DX009 (ip), vehicle: saline with Tween-80 100 % of control | dose: 100.0 mg/kg/injection, schedule: Q01DX009 (ip), vehicle: saline with Tween-80 100 % of control | dose: 200.0 mg/kg/injection, schedule: Q01DX009 (ip), vehicle: saline with Tween-80 100 % of control

CCOC(=O)CNCc1ccc(Cl)c(Cl)c1
inactive: [11] 106 % of control | [12] 95 % of control and 106 % of control | dose: 200.0 mg/kg/injection, schedule: Q04DX003 (ip), vehicle: water 87 % of control and 92 % of control
